The source of these data is patent publication US20250387361A1, “METHODS OF ADMINISTERING GAMMA-HYDROXYBUTYRATE COMPOSITIONS WITH DIVALPROEX SODIUM” (Flamel Ireland Limited, priority 2020, published 2025).

Each structure is given as a SMILES string. Like-named read-outs stand apart in the source and are kept apart here.

The conditions of data set [1]: cited from earlier work.
In a further data set the test system is plasma proteins. The settings on record: GHB concentrations 3 mcg/mL to 300 mcg/mL; cited from earlier work.
For data set [2] the following is noted: cited from earlier work. The source holds these as a separate data set.
For data set [3] the following is noted: in vivo. How it is done: The study included a sequential, three period design with a single-dose administration of 6 g FT218 on Day 1 (Period 1), once daily 1250 mg divalproex sodium ER administration from Day 2-11 (Period 2), and FT218 and divalproex sodium ER co-administration on Day 12 (Period 3). All administrations were performed in the evening, 2 hours after the completion of dinner.
(§1) To compare the effect of FT218 on DVP, the concentration versus time curves for a 1250 mg dose of DVP administered alone (Day 11) and co-administered with FT218 (Day 12) were plotted together.

For data set [4] the following is noted: in vivo. How it is done: The study included a sequential, three period design with a single-dose administration of 6 g FT218 on Day 1 (Period 1), once daily 1250 mg divalproex sodium ER administration from Day 2-11 (Period 2), and FT218 and divalproex sodium ER co-administration on Day 12 (Period 3). All administrations were performed in the morning, 2 hours after the completion of a morning meal.
as §1
The source holds these as a separate data set.

The next data set deals with mouse. The settings on record: 2-year study; cited from earlier work.
In another data set the test system is rat. The note with it: 2-year study; cited from earlier work.
The subject of a further data set is patients. The note with it: cited from earlier work; for incidence of depression: controlled trial titrated from 4.5 g, placebo 1.7%.
The conditions of data set [5]: n=20, another studied population; cited from earlier work.
The mark [6] stands for this setting: 9 g per night, 50 patients with obstructive sleep apnea.
[7] abbreviates: elderly (65 years or older), another population.
[8] abbreviates: of 781 patients with narcolepsy.
Setting [9] is: younger adults, another population.
Where [10] appears, read: 6 g per day as two 3 g doses, ibuprofen 800 mg/dose four times per day.

Regarding `O=C(O)CCCO` [GHB, gamma-hydroxybutyrate], the “excretion in human milk” value in data set [1] (after oral administration of sodium oxybate) is “excreted in human milk”. In [1] (in vivo), the “apparent volume of distribution” value was 0.19 to 0.384 L/kg, the elimination half-life is 30 to 60 min and the fecal excretion entry was “negligible”. The placental transfer entry in [1] (intravenous administration to mothers) was “rapid”. In addition, the “unchanged drug in human urine” value in data set [1] (within 6 to 8 hours after dosing) is listed as “less than 5%”. The “bound to plasma proteins” value in the data set on plasma proteins is “less than 1%”. For the same compound, the “change in pharmacokinetics of GHB on alteration of gastric pH with omeprazole” value in data set [2] (in vivo) is reported as “no significant change”.

Regarding `CCCC(CCC)C(=O)O` [divalproex sodium ER, divalproex sodium], in data set [3] (human), the “decrease of valproic acid Cmax with FT218” value was “approximately 5%”; the “valproic acid AUC0-24 T/R ratio [90% CI], Day 12 (with FT218) vs Day 11 (without)” value is 97.28 [94.59-100.04]; the “valproic acid Cmax T/R ratio [90% CI], Day 12 (with FT218) vs Day 11 (without)” value is 94.82 [91.03-98.76]. In [3], the “90% CIs of ratio of Cmax and AUC0-24 of valproic acid vs bioequivalence range (80.00%-125.00%)” value is listed as “contained within the standard bioequivalence range”; the “tmax for valproic acid, with vs without FT218” value is listed as “comparable”. Moreover, the “90% CIs of ratio of Cmax and AUC0-24 of valproic acid vs bioequivalence range (80.00%-125.00%)” value in [4] was “contained within the standard bioequivalence range”.

Regarding `O=C1CCCO1` [gamma-butyrolactone], the carcinogenic activity entry in the data set with mouse and in the data set on rat was “no clear evidence of carcinogenic activity” throughout.

For `O=C([O-])CCCO.[Na+]` [immediate-release sodium oxybate, sodium 4-hydroxybutyrate], the incidence of depression in the data set on patients (4.5 g per night) is recorded as 1.5%. In addition, the incidence of depression in the data set with patients (6 g per night) is 3.2%. For the same compound, the “patients with clinically significant oxygen desaturation (≤55%)” value in the data set with patients (9 g per night, 50 patients with obstructive sleep apnea (three patients)) was 6%. Also, in the data set with patients (setting [6]), the “number of central apneas” value is listed as “significant increase” and the “severity of sleep-disordered breathing” value was “did not increase the severity of sleep-disordered breathing”. Moreover, in the data set on patients (9 g per night, controlled fixed-dose trial), the patients experiencing confusion is on record as 17%. Moreover, the incidence of depression in the data set on patients (9 g per night) is recorded as 3.6%. The “clinically significant worsening of respiratory function” value with patients (40 patients with baseline apnea/hypopnea index 16 to 67 events per hour, 4.5 g to 9 g per night) is on record as “None of the 40 patients”. The “profound CNS depression” value in the data set with patients (128 patients with narcolepsy) is “two subjects had profound CNS depression”. Moreover, the “CNS depression at recommended doses” value in the data set on patients (adult patients, clinical trials) is “obtundation and clinically significant respiratory depression occurred”. Besides, in the data set with patients (clinical trial in patients with narcolepsy), the “sleepwalking with potential injury or significant injury” value is recorded as “Five instances”. In addition, in the data set on patients (controlled trial, fixed doses 3 g, 6 g or 9 g per night, at the 3 g per night dose), the events of depression entry is on record as “a single event of depression”. Besides, the “dose-related changes in oxygen saturation” value in the data set on patients (doses up to 9 g per night, 21 patients with narcolepsy) was “no dose-related changes in oxygen saturation”. Also, in the data set with patients (setting [7]), the “discontinuations of treatment due to adverse reactions” value is recorded as 21% and the frequency of headaches was 39%. Also, the “patients discontinuing because of depression” value in the data set with patients (four of 781 patients) is recorded as less than 1%. Moreover, in the data set on patients (human, in vivo), the “patients discontinuing due to sleepwalking” value was less than 1% and the “patients who discontinued because of confusion” value is “Less than 1%”. In addition, in the data set with patients (setting [8]), the “patients reporting adverse reactions of depression” value is recorded as 7% and the “patients who experienced confusion” value is 3%. Moreover, the patients reporting sleepwalking in the data set with patients (of 781 patients with narcolepsy, controlled and long-term open-label studies) was 6%. Also, the “patients in whom anxiety occurred” value in the data set on patients (of 874 patients, another population) is reported as 5.8%. In the data set on patients (patients with narcolepsy (n=781)), the “suicides and attempted suicides” value is “two suicides and two attempted suicides”. Besides, the “significant worsening of apnea/hypopnea index” value in the data set with patients (patients with preexisting moderate-to-severe sleep apnea) is reported as “One of four patients”. Further, in the data set on patients (trial titrated from 4.5 g per night, at the 9 g per night dose), the events of confusion result is on record as “a single event of confusion”. Moreover, in the data set on patients (setting [9]), the “discontinuations of treatment due to adverse reactions” value is reported as 19% and the frequency of headaches is 19%. Besides, the “systemic exposure to GHB on co-administration with diclofenac” value in [2] (6 g per day as two 3 g doses four hours apart, diclofenac 50 mg/dose twice per day) is listed as “no significant changes”. Further, the “effect of co-administration on pharmacokinetics of diclofenac” value in data set [2] (6 g per day as two 3 g doses, diclofenac 50 mg/dose twice per day) is reported as “did not appear to affect”. In data set [2] (setting [10]), the “effect of co-administration on pharmacokinetics of ibuprofen” value is “did not affect”; the “systemic exposure to GHB (plasma Cmax and AUC) on co-administration with ibuprofen” value is reported as “comparable systemic exposure”. Further, in [2] (healthy adults), the “pharmacokinetic interactions with protriptyline hydrochloride, zolpidem tartrate, and modafinil” value is on record as “no pharmacokinetic interactions”; the “pharmacokinetic or pharmacodynamic interactions with duloxetine HCl” value is “no pharmacokinetic or clinically significant pharmacodynamic interactions”. The “pharmacokinetic interactions with the alcohol dehydrogenase inhibitor fomepizole” value in data set [2] (in vivo) is “no pharmacokinetic interactions”. Besides, in data set [5], the “pharmacokinetic characteristics of GHB in younger (48 to 64 years) vs older (65 to 75 years) adults” value is on record as “consistent”.
